Measurements: patent US11344553B2, “Substituted pyrazolopyrimidines useful as kinases inhibitors” (TELIGENE LTD, priority 2017, dated 2022)
≈ marks a conversion by molar mass, not a printed value. Where two headings read alike, the source gives them in different places.

Experiments:
[1] = Solubility measurement in pH 4.0 buffer (HPLC); type: physicochemical; settings: pH 4.0 buffer solution (20 mM), aqueous buffer, thermodynamic from solid; pH 4.0 buffer (20 mM), 25° C.
Method: (c) Solubility Measurement of a Representative Number of Compounds
Solubility measurement procedure may include:
Preparation of reference standard solution: 2 mg of the testing compound was added individually to 100 mL volumetric flask each. The compound was diluted with acetonitrile to 100 mL.
Preparation of sample solution: 2 mg of the testing compound was added individually to 2 mL eppendorf tube (EP), followed by the addition of 1 mL of pH 4.0 buffer solution (20 mM). The solution was shaken for 2 minutes and left for 30 minutes at 25° C. After standing for 30 minutes, precipitate was formed at the bottom of the EP. The solution was filtered through a 0.2 μm membrane filter, and then diluted by 50 times with water.
The standard and sample solutions were injected into the HPLC on a Shim-Pack CLC-ODS C18 column (150 mm×6.0 mm, Sum) with the same volume. The mobile phase consists of acetonitrile with 2% trichloromethane—20 mM KH2PO4 buffer (pH=7.0) at a flow rate of 1 mL/minutes (40:60). The detection wavelength was at 264 nm. Calculation: solubility of sample=the concentration of standard×Area of sample×50/Area of standard.
The following Table C lists solubility data for selected compounds.

[2] = One-month toxicity study in rat; type: in vivo; settings: 30 mg/kg and 100 mg/kg, end of administration and recovery periods
Method: A representative number of compounds, including Compound 1 (LOXO-101) and Compound 3, were tested in a typical one-month toxicity studies in rat with dosages of 30 mg/kg and 100 mg/kg.

[3] = Pharmacokinetic study, IV and oral, bioavailability; type: in vivo; settings: plasma, oral; rat; 2 mg/kg IV, 5 mg/kg orally; read-out: F (%) oral bioavailability
Excerpt: (d) Pharmacokinetic Study of a Representative Number of Compounds A representative protocol for the PK (pharmacokinetic) assay was as followed: Compounds were given either IV or orally to the same animals. […] Analysis: LC-MS/MS was used to calculate PK parameters: t1/2, tmax, Cmax, Vss and AUC, etc. The following TABLE D lists selected compounds and their bioavailability.

[4] = Brain penetration (brain to plasma ratio); type: in vivo
TEL-NTRK1-BaF3 cell = TEL-NTRK1-BaF3 cell assay (CellTiter-Glo viability, 72 hours); type: cell-based
Method: (b) A Representative Number of Compounds were Assayed Against TEL-NTRK1-BaF3 Cell.
I. Prepare Compound Plate
Compounds to be assayed were dissolved in 100% DMSO to prepare a […] mother solution, which underwent 3× series dilution to prepare solutions with concentrations of 10 mM, 3.333 mM, 1.111 mM, 0.370 mM, 0.123 mM, 0.041 mM, 0.014 mM, all of which stored in 0.5 mL sterile eppendorf (Corning, N.Y., USA). At the same time prepare a blank sample as control containing DMSO only with the same volume as the compound solutions. The 9 samples on the Compound plate were store at −20° C. in vacuum.
II. Cell Culture Conditions
TEL-NTRK1-BaF3 cell line was cultured in RPMI 1640 (Corning, N.Y., USA)+10% fetal calf serum (Gibco/Invitrogen, USA) for two generations after resuscitation. Stored for future use.
III. Assay and Data Analysis
Cells (2,000-2,500 cells per well) at log phase were harvested and inoculated in wells of a white, opaque cell culture plate (Corning 3570, NY, USA). The volume of suspensions comprising cells in each well was 100 μL. Compounds from the Compound plate were added 0.1 μL per well to the cell culture plate to reach a final compound concentrations of 10 μM, 3.3 μM, 1.1 μM, 0.37 μM, 0.12 μM, 0.04 μM, and 0.014 μM. Incubated at 37° C. and 5% CO2 culture chamber for 72 hours. Ten μL CellTiter-Glo® Luminescent Cell Viability Assay Reagent was added to each well, wait for 10 minutes, then read using Evision Plate-Reader.
The following Table B lists compounds representative of the disclosure and their activity in TEL-NTRK1-BaF3 Cell assay.

TRK-A = TRK-A (Homo sapiens (Human), UniProt P04629); assay: In vitro kinase activity inhibition assay (Caliper), TRK-A; type: biochemical
Method: (§1) (a) An In Vitro Assay which Determines the Ability of a Test Compound to Inhibit Kinase Activity
(§2) I. Prepare 1× Kinase Base Buffer and Stop Buffer for Testing Kinases
1) 1× Kinase base buffer (for TRK-A)
(§3) II. Prepare Source Plate with Compound
(§4) 1) Dilute the compound to 50× of the final concentration in reaction by 100% DMSO. Transfer 100 μl of this compound dilution to a well in a 96-well plate. For example, if the desired highest inhibitor concentration is 10 μM, then prepare a 500 μM of compound DMSO solution in this step.
(§5) 2) Perform 3× series dilution of the compound dilution obtained in step 1) with 100% DMSO to provide 9 more diluted solutions of the compound.
(§6) 3) Add 100 μl of 100% DMSO to two empty wells for no compound control and no enzyme control in the same 96-well plate. Mark the plate as source plate.
(§7) 4) Prepare intermediate plate
(§8) Transfer 10 μl of compound from the source plate to a new 96-well plate as the intermediate plate.
(§9) Add 90 μl of 1× Kinase base buffer to each well of the intermediate plate.
(§10) Mix the compounds in intermediate plate for […] on a shaker.
Transfer 5 μl of each well from the 96-well intermediate plate to a 384-well plate in duplicates. For example, A1 of the 96-well plate is transferred to A1 and A2 of the 384-well plate. A2 of the 96-well plate is transferred to A3 and A4 of the 384-well plate, and so on. […]

ROS1 = ROS1 (Homo sapiens (Human), UniProt P08922); assay: In vitro kinase activity inhibition assay (Caliper), ROS1; type: biochemical; settings: read-out: ROS-1 IC50
Method: as §1, §2, §3, §4, §5, §6, §7, §8, §9, §10
Transfer 5 μl of each well from the 96-well intermediate plate to a 384-well plate in duplicates. For example, A1 of the 96-well plate is transferred to A1 and A2 of the 384-well plate. A2 of the 96-well plate is transferred to A3 and A4 of the 384-well plate, and so on.
1) Prepare 2.5× enzyme solution Add kinase in 1× kinase base buffer. […]

Sequence of TRK-A (P04629 33-796, species assumed): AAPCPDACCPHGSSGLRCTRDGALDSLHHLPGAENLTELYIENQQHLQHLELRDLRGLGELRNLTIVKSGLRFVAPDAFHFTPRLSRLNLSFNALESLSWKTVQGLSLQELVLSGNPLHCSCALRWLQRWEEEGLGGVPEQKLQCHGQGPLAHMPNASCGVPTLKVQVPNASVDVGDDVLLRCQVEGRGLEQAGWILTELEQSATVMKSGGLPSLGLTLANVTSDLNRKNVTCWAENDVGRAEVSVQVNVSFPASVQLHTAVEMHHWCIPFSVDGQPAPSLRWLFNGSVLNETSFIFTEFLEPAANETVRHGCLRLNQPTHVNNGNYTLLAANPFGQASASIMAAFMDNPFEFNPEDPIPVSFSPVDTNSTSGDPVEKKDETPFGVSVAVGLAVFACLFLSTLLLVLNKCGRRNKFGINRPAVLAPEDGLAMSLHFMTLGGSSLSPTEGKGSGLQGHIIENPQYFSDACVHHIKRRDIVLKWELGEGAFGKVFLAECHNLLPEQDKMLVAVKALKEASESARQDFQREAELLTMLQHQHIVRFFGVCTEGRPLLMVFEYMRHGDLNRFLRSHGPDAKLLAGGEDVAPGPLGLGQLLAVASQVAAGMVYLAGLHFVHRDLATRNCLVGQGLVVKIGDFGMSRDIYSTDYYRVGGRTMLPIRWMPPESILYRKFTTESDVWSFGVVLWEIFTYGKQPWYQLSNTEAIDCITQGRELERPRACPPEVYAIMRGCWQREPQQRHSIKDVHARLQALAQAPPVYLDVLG
Sequence of ROS1 (P08922 28-2347, species assumed): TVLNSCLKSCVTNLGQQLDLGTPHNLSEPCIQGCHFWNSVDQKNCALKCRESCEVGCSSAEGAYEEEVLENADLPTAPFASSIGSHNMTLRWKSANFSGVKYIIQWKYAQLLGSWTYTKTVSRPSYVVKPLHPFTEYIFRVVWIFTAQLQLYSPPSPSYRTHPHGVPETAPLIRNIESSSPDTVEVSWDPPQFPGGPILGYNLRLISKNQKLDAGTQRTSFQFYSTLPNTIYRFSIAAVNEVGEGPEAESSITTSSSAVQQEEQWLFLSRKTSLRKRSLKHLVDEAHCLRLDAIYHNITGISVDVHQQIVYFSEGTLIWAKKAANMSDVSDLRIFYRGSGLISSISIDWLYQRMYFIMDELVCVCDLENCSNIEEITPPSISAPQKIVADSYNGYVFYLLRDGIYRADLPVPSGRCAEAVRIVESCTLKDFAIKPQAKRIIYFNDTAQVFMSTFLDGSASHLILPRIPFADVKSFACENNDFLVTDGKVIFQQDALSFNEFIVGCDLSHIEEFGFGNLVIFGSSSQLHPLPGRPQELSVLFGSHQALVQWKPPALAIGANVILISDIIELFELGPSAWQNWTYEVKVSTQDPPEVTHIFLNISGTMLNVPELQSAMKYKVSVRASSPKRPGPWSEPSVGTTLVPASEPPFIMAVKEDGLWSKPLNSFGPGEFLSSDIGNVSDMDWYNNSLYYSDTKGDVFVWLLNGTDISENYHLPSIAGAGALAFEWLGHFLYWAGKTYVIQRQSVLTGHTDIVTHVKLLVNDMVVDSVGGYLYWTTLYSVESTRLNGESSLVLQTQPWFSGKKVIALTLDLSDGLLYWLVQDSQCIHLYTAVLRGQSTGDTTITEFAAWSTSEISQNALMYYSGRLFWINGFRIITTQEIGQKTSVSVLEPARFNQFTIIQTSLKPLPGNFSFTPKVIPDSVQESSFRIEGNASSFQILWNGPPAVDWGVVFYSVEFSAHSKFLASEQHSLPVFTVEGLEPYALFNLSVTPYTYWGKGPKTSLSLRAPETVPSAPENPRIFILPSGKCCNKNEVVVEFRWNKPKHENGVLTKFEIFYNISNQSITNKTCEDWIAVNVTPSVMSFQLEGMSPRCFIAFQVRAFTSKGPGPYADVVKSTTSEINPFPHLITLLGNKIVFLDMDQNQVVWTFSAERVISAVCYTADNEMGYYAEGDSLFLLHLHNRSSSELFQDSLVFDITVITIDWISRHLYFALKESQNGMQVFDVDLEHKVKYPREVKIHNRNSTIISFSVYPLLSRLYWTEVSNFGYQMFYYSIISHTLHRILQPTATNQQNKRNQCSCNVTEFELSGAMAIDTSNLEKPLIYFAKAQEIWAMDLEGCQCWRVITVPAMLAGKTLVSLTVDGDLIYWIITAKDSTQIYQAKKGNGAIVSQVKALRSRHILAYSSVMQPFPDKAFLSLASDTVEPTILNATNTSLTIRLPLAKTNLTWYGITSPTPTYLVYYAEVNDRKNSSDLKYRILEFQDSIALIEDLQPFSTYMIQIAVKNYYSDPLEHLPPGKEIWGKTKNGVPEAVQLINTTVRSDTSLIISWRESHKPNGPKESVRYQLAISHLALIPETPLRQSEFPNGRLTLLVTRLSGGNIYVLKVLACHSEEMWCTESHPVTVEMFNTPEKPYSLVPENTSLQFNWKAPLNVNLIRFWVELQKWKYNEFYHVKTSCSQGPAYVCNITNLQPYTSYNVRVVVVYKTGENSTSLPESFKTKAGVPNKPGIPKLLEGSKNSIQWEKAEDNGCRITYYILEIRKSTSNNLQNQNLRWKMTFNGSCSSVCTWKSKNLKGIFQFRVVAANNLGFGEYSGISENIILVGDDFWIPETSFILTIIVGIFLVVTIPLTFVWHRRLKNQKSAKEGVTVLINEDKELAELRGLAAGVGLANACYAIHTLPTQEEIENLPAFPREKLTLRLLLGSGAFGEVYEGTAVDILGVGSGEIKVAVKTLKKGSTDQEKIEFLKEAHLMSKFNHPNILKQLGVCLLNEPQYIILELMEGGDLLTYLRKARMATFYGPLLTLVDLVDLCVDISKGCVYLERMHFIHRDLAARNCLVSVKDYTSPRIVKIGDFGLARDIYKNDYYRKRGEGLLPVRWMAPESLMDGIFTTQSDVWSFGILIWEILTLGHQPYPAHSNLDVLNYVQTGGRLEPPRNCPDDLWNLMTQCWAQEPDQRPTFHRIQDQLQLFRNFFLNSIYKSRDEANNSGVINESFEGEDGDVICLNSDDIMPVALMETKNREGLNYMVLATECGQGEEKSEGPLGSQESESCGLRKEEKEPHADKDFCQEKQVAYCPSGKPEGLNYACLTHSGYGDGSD

solubility [1] [mg/mL] | bioavailability [3] [%] | brain penetration ([4]; in vivo) | GI50 (TEL-NTRK1-BaF3 cell; 72 h) [nM] | IC50 (TRK-A) [nM] | GI50 (TEL-NTRK1-BaF3 cell) [nM] | IC50 (ROS1) [nM] | Kp ([4]; brain) | SMILES | #LYMPH and/or % LYMPH in blood [2] | #NEUT and/or % NEUT in blood [2]
0.31 (≈ 724 µM) | 33 | low brain penetration | 25 |  |  |  |  | O=C(Nc1cnn2ccc(N3CCC[C@@H]3c3cc(F)ccc3F)nc12)N1CC[C@H](O)C1 [Compound 1, reference compound] | slight decrease | slight increase trend
 |  |  |  | 1.8 | < 1 |  |  | CN1CCN(Cc2ccc(C(=O)Nc3cnn4ccc(N5CCC[C@@H]5c5cc(F)ccc5F)nc34)cc2)CC1 [Compound 2] |  | 
36.1 (≈ 67900 µM) | 56 |  |  | 3 | 3 | 104 | 5.47 | CN1CCN(Cc2ccc(C(=O)Nc3cnn4ccc(N5CCC[C@@H]5c5cc(F)ccc5F)nc34)cc2)CC1 [Compound 3] |  | 
0.31 (≈ 589 µM) |  |  | 24 |  |  |  |  | CCS(=O)(=O)Nc1ccc(C(=O)Nc2cnn3ccc(N4CCC[C@@H]4c4cc(F)ccc4F)nc23)cc1 [Compound 4] |  | 
